Test results from US12371430B2, “5-morpholin-4-yl-pyrazolo[4,3-b]pyridine derivatives” (Merck Patent GmbH, priority 2018, dated 2025).

Experiments:
ATR/ATRIP = ATR/ATRIP (Homo sapiens (Human), UniProt Q13535); assay: ATR/ATRIP kinase assay (TR-FRET, p53 Ser15 phosphorylation); assay type: biochemical; conditions: 0.5 μM ATP, 50 nM p53
Protocol: ATR/ATRIP Kinase Assay—Measurement of ATR/ATRIP Inhibition
The IC50 value was determined by an ATR/ATRIP enzymatic assay. The assay comprises two steps: the enzymatic reaction and the detection step. First, a mixture of ATR/ATRIP protein (Ataxia Telangiectasia and Rad3-related protein/ATR interacting protein), the compound in question at different concentrations, p53 as substrate protein and adenosine triphosphate (ATP) are incubated in assay buffer. ATR phosporylates p53 at Ser15 and other residues. The amount of phosphorylated p53 is then detected using specific antibodies and the TR-FRET assay technology.
In detail: The ATR/ATRIP enzymatic assay is performed as a TR-FRET-(HTRF™, Cisbio Bioassays) based 384-well assay. In a first step, purified human recombinant ATR/ATRIP (human ATR, full length, GenBank ID: NM_001184.3, and human ATRIP, full length, GenBank ID AF451323.1, co-expressed in a mammalian cell line) is incubated in assay buffer for 15 minutes at 22° C. with test compound at different concentrations or without test compound (as a negative control). The assay buffer contains 25 mM HEPES pH 8.0, 10 mM Mg(CH3COO)2, 1 mM MnCl2, 0.1% BSA, 0.01% Brij® 35, and 5 mM dithiothreitol (DTT). An Echo 555 (Labcyte) is used for dispensing of compound solutions. Then, in a second step, purified human recombinant cmyc-tagged p53 (human p53, full length, GenBank ID: BC003596, expressed in Sf21 insect cells) and ATP are added and the reaction mixture is incubated for 25-35 minutes, typically 25 minutes, at 22° C. The pharmacologically relevant assay volume is 5 μl. The final concentrations in the assay during incubation of the reaction mixture are 0.3-0.5 nM, typically 0.3 nM, ATR/ATRIP, 50 nM p53, and 0.5 μM ATP. The enzymatic reaction is stopped by the addition of EDTA. The generation of phosphorylated p53 as a result of the ATR mediated reaction in the presence of ATP is detected by using specific antibodies [labeled with the fluorophores europium (Eu) as donor and d2 as acceptor (Cisbio Bioassays)] enabling FRET. For this purpose, 2 μl of antibody-containing stop solution (12.5 mM HEPES pH 8.0, 125 mM EDTA, 30 mM sodium chloride, 300 mM potassium fluoride, 0.006% Tween-20, 0.005% Brij® 35, 0.21 nM anti-phospho-p53(Ser15)-Eu antibody, 15 nM anti-cmyc-d2 antibody) are added to the reaction mixture. Following signal development for 2 h the plates are analyzed in an EnVision (PerkinElmer) microplate reader using the TRF mode with laser excitation. Upon excitation of the donor europium at 340 nm the emitted fluorescence light of the acceptor d2 at 665 nm as well as from the donor Eu at 615 nm are measured. The amount of phosphorylated p53 is directly proportional to the ratio of the amounts of emitted light i.e. the ratio of the relative fluorescence units (rfu) at 665 nm and 615 nm. Data are processed employing the Genedata Screener software. In particular, IC50 values are determined in the usual manner by fitting a dose-response curve to the data points using nonlinear regression analysis. • IC50=half maximal inhibitory concentration • ATP=Adenosine triphosphate • TR-FRET=Time-Resolved Fluorescence Resonance Energy Transfer • HTRF®=Homogeneous Time Resolved Fluorescence • HEPES=2-(4-(2-Hydroxyethyl)-1-piperazinyl)-ethanesulfonic acid • Mg(CH3COO)2=Magnesium acetate • MnCl2=Manganese(II)-chloride • BSA=Bovine Serum Albumin • EDTA=Ethylendiamine Tetraacetate • TRF=Time Resolved Fluorescence pCHK1 Cellular Assay

[1] = tested on: phosphorylation of Chk1 (Ser 345) in HT29 colon adenocarcinoma cells; assay: pCHK1 cellular assay; assay type: cell-based; conditions: Homo sapiens, HT-29, hydroxyurea 3 mM, 4 h
Source text: Chk1 kinase acts downstream of ATR and has a key role in DNA damage checkpoint control. Activation of Chk1 involves phosphorylation of Ser317 and Ser345 (regarded as the preferential target for phosphorylation/activation by ATR) and occurs in response to blocked DNA replication and certain forms of genotoxic stress. Phosphorylation at Ser 345 serves to localize Chk1 to the nucleus following checkpoint activation.
This assay measures a decrease in phosphorylation of Chk1 (Ser 345) in HT29 colon adenocarcinoma cells following treatment with compound and hydroxyurea (which promotes fork stalling because of dNTP depletion) and using an immunocytochemical procedure and high content imaging.
For the assay HT29 cells are plated in culture medium (DMEM high Glucose (no phenol red), 2 mM Glutamax, 1 mM Pyruvate, 10% FCS into Greiner 384 well plates, black, μclear #781090 (2500 cells/well/30 μl) and incubated for at least 20 hours at 37° C., 10% CO2 and 90% rH. Diluted test compounds (1 nM-30 μM final) and hydroxyurea (3 mM final) are added simultaneously and cells are incubated for 4 h at 37° C. After fixation/prmeabilisation with 100% MeOH (−20° C. cold) and permeabilisation with 0.2% Triton X-100 a complete immunocytochemical procedure is performed using a specific anti-pChk1 antibody (Cell Signaling, #2348BF) and fluorescently labelled secondary antibody (Alexa Fluor® 488 goat anti-rabbit F(ab′)2 fragment, Invitrogen A11070) and parallel nuclear staining for cell counting.
The nuclear localised pChk1 signal is detected on an ImageXpress Ultra confocal high content reader and reported as % positive cells (nuclei).

ATR/ATRIP, sequence (Q13535 whole entry): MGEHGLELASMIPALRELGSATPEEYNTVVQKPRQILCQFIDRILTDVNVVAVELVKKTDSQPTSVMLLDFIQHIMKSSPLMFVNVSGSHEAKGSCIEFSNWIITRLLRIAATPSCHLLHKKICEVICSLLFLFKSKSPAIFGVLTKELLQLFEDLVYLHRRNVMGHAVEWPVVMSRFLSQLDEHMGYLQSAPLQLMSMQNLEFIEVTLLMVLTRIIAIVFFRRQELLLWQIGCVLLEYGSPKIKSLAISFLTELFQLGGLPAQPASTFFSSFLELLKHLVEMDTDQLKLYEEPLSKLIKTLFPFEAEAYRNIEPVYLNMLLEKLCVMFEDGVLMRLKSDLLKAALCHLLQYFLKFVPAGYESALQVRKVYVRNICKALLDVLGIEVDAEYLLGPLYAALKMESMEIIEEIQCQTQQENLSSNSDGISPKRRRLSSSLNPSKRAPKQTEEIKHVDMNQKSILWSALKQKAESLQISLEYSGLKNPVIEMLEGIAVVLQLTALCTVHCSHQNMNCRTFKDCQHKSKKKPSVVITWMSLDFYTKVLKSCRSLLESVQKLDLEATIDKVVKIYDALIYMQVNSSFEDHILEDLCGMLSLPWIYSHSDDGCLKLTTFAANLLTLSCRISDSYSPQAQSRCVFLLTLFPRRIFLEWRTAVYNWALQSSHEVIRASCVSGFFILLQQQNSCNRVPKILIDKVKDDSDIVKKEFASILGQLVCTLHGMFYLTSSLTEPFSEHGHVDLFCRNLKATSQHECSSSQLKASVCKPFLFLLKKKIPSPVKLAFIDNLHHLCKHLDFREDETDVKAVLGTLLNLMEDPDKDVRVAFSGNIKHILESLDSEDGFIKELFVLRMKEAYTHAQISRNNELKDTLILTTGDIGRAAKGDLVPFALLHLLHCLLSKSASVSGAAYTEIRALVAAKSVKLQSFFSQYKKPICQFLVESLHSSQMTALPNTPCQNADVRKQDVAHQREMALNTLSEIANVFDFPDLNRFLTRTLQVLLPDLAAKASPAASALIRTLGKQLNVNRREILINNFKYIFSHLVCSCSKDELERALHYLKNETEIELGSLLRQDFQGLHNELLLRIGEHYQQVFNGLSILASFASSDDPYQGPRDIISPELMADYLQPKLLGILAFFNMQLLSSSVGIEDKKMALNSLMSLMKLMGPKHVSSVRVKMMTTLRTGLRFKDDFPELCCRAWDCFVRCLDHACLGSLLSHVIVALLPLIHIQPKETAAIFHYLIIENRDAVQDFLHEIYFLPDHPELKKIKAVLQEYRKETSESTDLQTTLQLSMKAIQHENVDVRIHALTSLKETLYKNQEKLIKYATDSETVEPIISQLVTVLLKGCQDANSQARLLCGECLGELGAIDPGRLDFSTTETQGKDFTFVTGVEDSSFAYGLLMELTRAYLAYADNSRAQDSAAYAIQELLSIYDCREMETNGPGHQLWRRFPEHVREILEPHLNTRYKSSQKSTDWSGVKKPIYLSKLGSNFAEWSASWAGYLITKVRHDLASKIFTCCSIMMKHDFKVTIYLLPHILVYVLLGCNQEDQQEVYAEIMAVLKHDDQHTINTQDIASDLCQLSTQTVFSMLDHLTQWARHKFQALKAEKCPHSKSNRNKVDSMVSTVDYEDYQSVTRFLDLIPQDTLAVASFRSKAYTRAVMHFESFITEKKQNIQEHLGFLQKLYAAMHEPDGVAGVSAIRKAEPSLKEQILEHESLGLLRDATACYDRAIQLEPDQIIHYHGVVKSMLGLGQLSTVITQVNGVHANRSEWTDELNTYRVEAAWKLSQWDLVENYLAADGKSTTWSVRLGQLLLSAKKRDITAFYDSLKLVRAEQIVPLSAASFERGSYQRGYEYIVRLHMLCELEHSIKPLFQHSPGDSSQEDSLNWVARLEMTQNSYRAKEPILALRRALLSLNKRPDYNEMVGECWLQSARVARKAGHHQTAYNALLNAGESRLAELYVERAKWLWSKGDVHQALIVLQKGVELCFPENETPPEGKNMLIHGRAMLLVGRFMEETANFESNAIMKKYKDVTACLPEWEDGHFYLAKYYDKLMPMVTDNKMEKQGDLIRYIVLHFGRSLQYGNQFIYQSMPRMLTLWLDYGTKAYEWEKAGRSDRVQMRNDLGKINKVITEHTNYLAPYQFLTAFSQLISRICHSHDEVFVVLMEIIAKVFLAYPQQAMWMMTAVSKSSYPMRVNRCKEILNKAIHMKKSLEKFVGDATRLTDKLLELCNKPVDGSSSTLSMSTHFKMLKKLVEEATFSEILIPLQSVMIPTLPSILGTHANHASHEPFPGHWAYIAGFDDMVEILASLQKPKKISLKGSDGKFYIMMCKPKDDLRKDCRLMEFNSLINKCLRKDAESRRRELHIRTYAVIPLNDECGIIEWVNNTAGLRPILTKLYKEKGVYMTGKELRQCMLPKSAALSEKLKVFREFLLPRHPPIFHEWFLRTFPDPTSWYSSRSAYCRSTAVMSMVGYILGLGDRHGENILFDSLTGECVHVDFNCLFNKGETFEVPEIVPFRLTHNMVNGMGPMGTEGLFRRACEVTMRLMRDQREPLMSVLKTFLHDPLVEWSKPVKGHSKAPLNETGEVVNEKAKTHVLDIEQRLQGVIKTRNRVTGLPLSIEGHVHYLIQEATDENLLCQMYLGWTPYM
ATR/ATRIP, sequence (Q8WXE1 whole entry partner): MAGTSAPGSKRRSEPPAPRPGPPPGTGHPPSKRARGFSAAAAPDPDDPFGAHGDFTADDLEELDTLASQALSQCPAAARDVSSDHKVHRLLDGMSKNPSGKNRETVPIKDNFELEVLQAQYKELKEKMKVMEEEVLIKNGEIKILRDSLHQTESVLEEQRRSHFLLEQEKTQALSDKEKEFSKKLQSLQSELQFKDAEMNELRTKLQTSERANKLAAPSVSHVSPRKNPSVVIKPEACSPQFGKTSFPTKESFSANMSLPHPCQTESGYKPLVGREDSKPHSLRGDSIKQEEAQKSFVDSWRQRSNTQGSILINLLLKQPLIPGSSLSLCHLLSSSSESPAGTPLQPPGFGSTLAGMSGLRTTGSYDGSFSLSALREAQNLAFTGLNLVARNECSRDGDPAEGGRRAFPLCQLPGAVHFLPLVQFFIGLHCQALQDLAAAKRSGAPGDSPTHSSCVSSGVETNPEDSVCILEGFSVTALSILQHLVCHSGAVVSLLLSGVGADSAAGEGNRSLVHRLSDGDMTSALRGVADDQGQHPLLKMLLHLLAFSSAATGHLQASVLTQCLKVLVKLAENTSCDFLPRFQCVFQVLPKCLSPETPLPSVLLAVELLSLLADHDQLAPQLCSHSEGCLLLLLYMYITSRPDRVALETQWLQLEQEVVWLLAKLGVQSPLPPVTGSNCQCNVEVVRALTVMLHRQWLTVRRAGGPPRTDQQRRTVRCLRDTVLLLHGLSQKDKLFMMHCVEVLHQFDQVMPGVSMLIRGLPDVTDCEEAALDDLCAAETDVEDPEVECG

| IC50 (ATR/ATRIP) [µM] | IC50 [1] [µM] | Compound |
| --- | --- | --- |
| 0.058 | 1 to 10 | C[C@@H]1COCCN1c1ccc2c(n1)c(-c1cc[nH]n1)nn2-c1cccc(C#N)c1 [Compound 53, 3-[5-((3R)-3-Methyl-morpholin-4-yl)-3-(1H-pyrazol-3-yl)-1H-pyrazolo[4,3-b]pyridin-1-yl]-benzonitrile] |
| 0.0039 | 0.1 to 1 | C[C@@H]1COCCN1c1cc(C2CC2)c2c(n1)c(-c1ccn[nH]1)nn2C [Compound 43, 7-Cyclopropyl-1-methyl-5-((R)-3-methyl-morpholin-4-yl)-3-(2H-pyrazol-3-yl)-1H-pyrazolo[4,3-b]pyridine] |
| 0.0041 | 0.01 to 0.1 | Cc1nc([S@+](C)[O-])ccc1-c1cc(N2CCOC[C@H]2C)nc2c(-c3cc[nH]n3)nn(C)c12 [Compound 9, (3R)-4-(7-{6-[(S)-Methanesulfinyl]-2-methylpyridin-3-yl}-1-methyl-3-(1H-pyrazol-3-yl)-1H-pyrazolo[4,3-b]pyridin-5-yl)-3-methylmorpholine] |
| 0.01 | 0.1 to 1 | C[C@@H]1COCCN1c1cc(C(=O)N(C)C)c2[nH]nc(-c3cc[nH]n3)c2n1 [Compound 27, 5-((R)-3-Methyl-morpholin-4-yl)-3-(1H-pyrazol-3-yl)-1H-pyrazolo[4,3-b]pyridine-7-carboxylic acid dimethylamide] |
| 0.051 | 1 to 10 | C[C@@H]1COCCN1c1ccc2c(n1)c(-c1cc[nH]n1)nn2CCc1ccccc1 [Compound 64, 5-((R)-3-Methyl-morpholin-4-yl)-1-phenethyl-3-(1H-pyrazol-3-yl)-1H-pyrazolo[4,3-b]pyridine] |
| 0.032 | 1 to 10 | C[C@@H]1COCCN1c1ccc2c(n1)c(-c1cc[nH]n1)nn2-c1ccc(C#N)cc1 [Compound 60, 4-[5-[(3R)-3-Methylmorpholin-4-yl]-3-(1H-pyrazol-3-yl)-1H-pyrazolo[4,3-b]pyridin-1-yl]benzonitrile] |
| 0.0054 | 1 to 10 | C[C@@H]1COCCN1c1cc(C(N)=O)c2[nH]nc(-c3cc[nH]n3)c2n1 [Compound 29, 5-((R)-3-Methyl-morpholin-4-yl)-3-(1H-pyrazol-3-yl)-1H-pyrazolo[4,3-b]pyridine-7-carboxylic acid amide] |
| 0.099 | 1 to 10 | Cc1ccc(-c2cc(N3CCOC[C@H]3C)nc3c(-c4cc[nH]n4)n(C)nc23)cn1 [Compound 14, 2-Methyl-5-((R)-3-methyl-morpholin-4-yl)-7-(6-methyl-pyridin-3-yl)-3-(1H-pyrazol-3-yl)-2H-pyrazolo[4,3-b]pyridine] |
| 0.027 | 0.1 to 1 | C[C@@H]1COCCN1c1ccc2c(n1)c(-c1cc[nH]n1)nn2CC1CC1 [Compound 63, (3R)-4-[1-(Cyclopropylmethyl)-3-(1H-pyrazol-3-yl)-1H-pyrazolo[4,3-b]pyridin-5-yl]-3-methylmorpholine] |
| 0.024 | 1 to 10 | C[C@@H]1COCCN1c1ccc2c(n1)c(-c1cc[nH]n1)nn2C(C)(C)CO [Compound 86, 2-Methyl-2-{5-[(3R)-3-methylmorpholin-4-yl]-3-(1H-pyrazol-3-yl)-1H-pyrazolo[4,3-b]pyridin-1-yl}propan-1-ol] |
| 0.0008 | 0.1 to 1 | Cc1nc(S(C)(=O)=O)ccc1-c1cc(N2CCOC[C@H]2C)nc2c(-c3cc[nH]n3)n[nH]c12 [Compound 12, 7-(6-Methanesulfonyl-2-methyl-pyridin-3-yl)-5-((R)-3-methyl-morpholin-4-yl)-3-(1H-pyrazol-3-yl)-1H-pyrazolo[4,3-b]pyridine] |
| 0.028 | 0.1 to 1 | CC(C)n1nc(-c2cc[nH]n2)c2nc(N3CCOC[C@H]3C)ccc21 [Compound 73, (3R)-3-Methyl-4-[1-(propan-2-yl)-3-(1H-pyrazol-3-yl)-1H-pyrazolo[4,3-b]pyridin-5-yl]morpholine] |
| 0.021 | 0.1 to 1 | Cc1ccc(S(C)(=O)=O)cc1-c1cc(N2CCOC[C@H]2C)nc2c(-c3ccn[nH]3)nn(C)c12 [Compound 75, (3R)-4-[7-(5-Methanesulfonyl-2-methylphenyl)-1-methyl-3-(1H-pyrazol-5-yl)-1H-pyrazolo[4,3-b]pyridin-5-yl]-3-methylmorpholine] |
| 0.0009 | 1 to 10 | CC(c1cc(N2CCOC[C@H]2C)nc2c(-c3cc[nH]n3)nn(C)c12)S(C)(=O)=O (stereo partly drawn) [Compound 89, (3R)-4-[7-(1-Methanesulfonylethyl)-1-methyl-3-(1H-pyrazol-3-yl)-1H-pyrazolo[4,3-b]pyridin-5-yl]-3-methylmorpholine] |
| 0.0009 | 0.01 to 0.1 | Cc1ccc(-c2cc(N3CCOC[C@H]3C)nc3c(-c4cc(C)n[nH]4)n[nH]c23)cn1 [Compound 3, (3R)-3-Methyl-4-[3-(3-methyl-1H-pyrazol-5-yl)-7-(6-methylpyridin-3-yl)-1H-pyrazolo[4,3-b]pyridin-5-yl]morpholine] |
| 0.0058 | 0.1 to 1 | C[C@@H]1COCCN1c1cc(-c2ccc(C(F)(F)F)nc2)c2c(n1)c(-c1cc[nH]n1)nn2C [Compound 65, (3R)-3-Methyl-4-[1-methyl-3-(1H-pyrazol-3-yl)-7-[6-(trifluoro-methyl)pyridin-3-yl]-1H-pyrazolo[4,3-b]pyridin-5-yl]morpholine] |
| 0.0014 | 0.1 to 1 | Cc1cc(-c2n[nH]c3c(-c4ccc(S(C)(=O)=O)nc4C)cc(N4CCOC[C@H]4C)nc23)[nH]n1 [Compound 13, (3R)-4-[7-(6-Methanesulfonyl-2-methylpyridin-3-yl)-3-(3-methyl-1H-pyrazol-5-yl)-1H-pyrazolo[4,3-b]pyridin-5-yl]-3-methylmorpholine] |
| 0.0004 | 0.01 to 0.1 | Cc1ncncc1-c1cc(N2CCOC[C@H]2C)nc2c(-c3cc[nH]n3)nn(C)c12 [Compound 87, (3R)-3-Methyl-4-[1-methyl-7-(4-methylpyrimidin-5-yl)-3-(1H-pyrazol-3-yl)-1H-pyrazolo[4,3-b]pyridin-5-yl]morpholine] |
| 0.0033 | 0.1 to 1 | Cc1ccnc(C)c1-c1cc(N2CCOC[C@H]2C)nc2c(-c3cc[nH]n3)nn(C)c12 [Compound 22, 7-(2,4-Dimethyl-pyridin-3-yl)-1-methyl-5-((R)-3-methyl-morpholin-4-yl)-3-(1H-pyrazol-3-yl)-1H-pyrazolo[4,3-b]pyridine] |
| 0.01 | 0.1 to 1 | C[C@@H]1COCCN1c1cc(-c2ccccn2)c2c(n1)c(-c1cc[nH]n1)nn2C [Compound 58, (3R)-3-Methyl-4-[1-methyl-3-(1H-pyrazol-3-yl)-7-(pyridin-2-yl)-1H-pyrazolo[4,3-b]pyridin-5-yl]morpholine] |
